In ChEMBL document CHEMBL3853328, “A molecular dynamics simulation investigation of the relative stability of the cyclic peptide octreotide and its deprotonated and its (CF3)-Trp substituted analogs in different solvents” (Bioorg Med Chem, 2016):
pKd: −log10 of the molar value.

Biological target: Somatostatin receptor type 2 (Homo sapiens, UniProt P30874)
Assay: Binding affinity to human SST2 receptor

Somatostatin receptor type 2, sequence (P30874 whole entry): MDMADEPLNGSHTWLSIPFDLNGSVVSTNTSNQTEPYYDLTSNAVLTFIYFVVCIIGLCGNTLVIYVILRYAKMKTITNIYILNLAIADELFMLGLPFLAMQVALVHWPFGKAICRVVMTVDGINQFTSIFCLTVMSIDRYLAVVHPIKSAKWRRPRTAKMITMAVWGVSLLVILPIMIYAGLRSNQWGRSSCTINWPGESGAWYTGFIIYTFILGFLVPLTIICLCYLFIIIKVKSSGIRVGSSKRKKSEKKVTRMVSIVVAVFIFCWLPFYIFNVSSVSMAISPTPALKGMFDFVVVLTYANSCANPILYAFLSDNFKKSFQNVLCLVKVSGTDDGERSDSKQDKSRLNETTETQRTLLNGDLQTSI

SMILES: C[C@@H](O)[C@H](CO)NC(=O)[C@@H]1CSSC[C@H](NC(=O)[C@H](N)Cc2ccccc2)C(=O)N[C@@H](Cc2ccccc2)C(=O)N[C@H](Cc2c(C(F)(F)F)[nH]c3ccccc23)C(=O)N[C@@H](CCCCN)C(=O)N[C@@H]([C@@H](C)O)C(=O)N1
- pKd: 7.81
